{"source": "patent US20250276079A1", "about": "“COMBINATION OF ANTIBODY-DRUG CONJUGATE WITH EZH1 and/or EZH2 INHIBITOR” (DAIICHI SANKYO COMPANY, LIMITED, priority 2022, published 2025)", "type_in_all_cases": "in vivo", "key": {"[1]": {"tested_on": "Human non-small lung cancer cell line Calu-3", "test": "Antitumor study (6): Calu-3 subcutaneous xenograft", "details": "Day 35; Calu-3 s.c. in female SCID mice; Compound A feed mix 0.3% Day 14 to Day 42; HER2-ADC (1) 1 mg/kg i.v. Day 14", "method": "(§1) Measurement and calculation formula: In all studies, the major axis and minor axis of tumors were measured once a week or twice a week with an electronic digital caliper, and the estimated tumor volume (mm^3) was calculated. The calculation formula is as shown below.\n(§2) Tumor growth inhibition (TGI) was calculated in accordance with the following calculation formula.\n(§3) [formula] • T: Average estimated tumor volume of mice of test substance administration group • C: Average estimated tumor volume of mice of control group\n(§4) The HER2-ADC (1) was diluted with ABS buffer (10 mM acetate buffer [pH 5.5], 5% sorbitol), and intravenously administered in a fluid volume of 10 mL/kg to the tail vein. The Compound A was orally administered by a feed mix containing 0.3% of Compound A.\n(§5) These methods are common to Examples 5 to 8, and Examples 11 to 16. In Example 12 to Example 16, TROP2-ADC (1), HER3-ADC (1), CD37-ADC (1), or B7-H3-ADC (1) was used in the evaluation. Moreover, the Compound A was orally administered by a feed mix containing 0.25% of Compound A in Example 12 to Example 16.\nHuman non-small lung cancer cell line Calu-3, which was purchased from ATCC (American Type Culture Collection), was suspended into Matrigel matrix and subcutaneously transplanted at 3×10^6 cells into the right side of each female SCID mouse (The Jackson Laboratory Japan, Inc.) (Day 0). […]"}, "[2]": {"tested_on": "Human breast cancer cell line MDA-MB-453", "test": "Antitumor study (3): MDA-MB-453 subcutaneous xenograft", "details": "Day 74; MDA-MB-453 s.c. in female SCID mice; Compound A feed mix 0.3% Day 18 to Day 46; HER2-ADC (1) 1 mg/kg i.v. Day 22", "method": "as §1, §2, §3, §4, §5\nHuman breast cancer cell line MDA-MB-453, which was purchased from ATCC, was suspended into 50% Matrigel matrix and subcutaneously transplanted at 1×10^7 cells into the right side of each female SCID mouse (CLEA Japan, Inc.) (Day 0). Eighteen days later, the mice were divided into groups based on estimated tumor volumes. […]"}, "[3]": {"tested_on": "Human non-small lung cancer cell line NCI-H358", "test": "Antitumor study (7): NCI-H358 subcutaneous xenograft", "details": "Day 115; NCI-H358 s.c. in female SCID mice; Compound A feed mix 0.25% Day 24 to Day 66; TROP2-ADC (1) 10 mg/kg i.v. Day 24 and Day 45", "method": "as §1, §2, §3, §4, §5\nHuman non-small lung cancer cell line NCI-H358, which was purchased from ATCC (American Type Culture Collection), was suspended into 50% Matrigel matrix and subcutaneously transplanted at 3×10^6 cells into the right side of each female SCID mouse (CLEA Japan, Inc.) (Day 0). […]"}, "[4]": {"tested_on": "Human neuroendocrine prostate cancer cell line NCI-H660", "test": "Antitumor study (10): NCI-H660 subcutaneous xenograft", "details": "Day 58; NCI-H660 s.c. in castrated male SCID mice; Compound A feed mix 0.25% Day 29 to Day 58; B7-H3-ADC (1) 0.3 mg/kg i.v. Day 29 and Day 43", "method": "as §1, §2, §3, §4, §5\nHuman neuroendocrine prostate cancer cell line NCI-H660, which was purchased from ATCC (American Type Culture Collection), was suspended into 50% Matrigel matrix and subcutaneously transplanted at 2×10^6 cells into the right side of each castrated male SCID mouse (CLEA Japan, Inc.) (Day 0). […]"}, "[5]": {"tested_on": "Human breast cancer cell line JIMT-1", "test": "Antitumor study (2): JIMT-1 subcutaneous xenograft, HER2-ADC (1)", "details": "Day 52; JIMT-1 s.c. in female SCID mice; Compound A feed mix 0.3% Day 14 to Day 42; HER2-ADC (1) 10 mg/kg i.v. Day 18", "method": "as §1, §2, §3, §4, §5\nHuman breast cancer cell line JIMT-1, which was purchased from DSMZ (Deutsche Sammlung von Mikroorganismen und Zellkulturen GmbH), was suspended into DPBS and subcutaneously transplanted at 5×10^6 cells into the right side of each female SCID mouse (CLEA Japan, Inc.) (Day 0). […]"}, "[6]": {"tested_on": "Human breast cancer cell line ZR-75-1", "test": "Antitumor study (5): ZR-75-1 subcutaneous xenograft", "details": "Day 49; ZR-75-1 s.c. in female NSG mice (estradiol cypionate weekly); Compound A feed mix 0.3% Day 14 to Day 42; HER2-ADC (1) 5 mg/kg i.v. Day 14", "method": "as §1, §2, §3, §4\nas §5, with “Example 16. […]” for “Example 16.”"}, "[7]": {"tested_on": "Human diffuse large B-cell lymphoma cell line WSU-DLCL2", "test": "Antitumor study (9): WSU-DLCL2 subcutaneous xenograft", "details": "Day 44; WSU-DLCL2 s.c. in female SCID mice; Compound A feed mix 0.25% Day 16 to Day 44; CD37-ADC (1) 1 mg/kg i.v. Day 16", "method": "as §1, §2, §3, §4, §5\nHuman diffuse large B-cell lymphoma cell line WSU-DLCL2, which was purchased from DSMZ (Deutsche Sammlung von Mikroorganismen und Zellkulturen GmbH), was suspended into DPBS and subcutaneously transplanted at 1×10^7 cells into the right side of each female SCID mouse (CLEA Japan, Inc.) (Day 0). […]"}, "[8]": {"tested_on": "Human gastric cancer cell line NCI-N87", "test": "Antitumor study (1): NCI-N87 subcutaneous xenograft", "details": "Day 63; NCI-N87 s.c. in female SCID mice; Compound A feed mix 0.3% Day 6 to Day 34; HER2-ADC (1) 2 mg/kg i.v. Day 10", "method": "as §1, §2, §3, §4, §5\nHuman gastric cancer cell line NCI-N87, which was purchased from ATCC (American Type Culture Collection), was suspended into DPBS (Dulbecco's phosphate-buffered saline) and subcutaneously transplanted at 1×10^7 cells into the right side of each female SCID (Severe Combined Immunodeficient) mouse (CLEA Japan, Inc.) (Day 0). […]"}, "[9]": {"tested_on": "Human breast cancer cell line JIMT-1", "test": "Antitumor study (8): JIMT-1 subcutaneous xenograft, HER3-ADC (1)", "details": "Day 46; JIMT-1 s.c. in female SCID mice; Compound A feed mix 0.25% Day 11 to Day 39; HER3-ADC (1) 10 mg/kg i.v. Day 11", "method": "as §1, §2, §3, §4, §5\nHuman breast cancer cell line JIMT-1, which was purchased from DSMZ (Deutsche Sammlung von Mikroorganismen und Zellkulturen GmbH), was suspended into saline and subcutaneously transplanted at 5×10^6 cells into the right side of each female SCID mouse (CLEA Japan, Inc.) (Day 0). […]"}, "[10]": {"tested_on": "Human breast cancer cell line MX-1", "test": "Antitumor study (4): MX-1 subcutaneous xenograft", "details": "Day 51; MX-1 s.c. in female SCID mice; Compound A feed mix 0.3% Day 13 to Day 41; HER2-ADC (1) 3 mg/kg i.v. Day 17", "method": "as §1, §2, §3, §4, §5\nHuman breast cancer cell line MX-1, which was purchased from CLS (Cell Lines Service), was suspended into 50% Matrigel matrix and subcutaneously transplanted at 5×10^6 cells into the right side of each female SCID mouse (CLEA Japan, Inc.) (Day 0). […]"}}}
{"smiles": "Cc1cc(C)c(CNC(=O)c2cc(Cl)c3c(c2C)O[C@@](C)([C@H]2CC[C@H](N(C)C)CC2)O3)c(=O)[nH]1", "note": "[Compound A, (2R)-7-chloro-2-[trans-4-(dimethylamino)cyclohexyl]-N-[(4,6-dimethyl-2-oxo-1,2-dihydropyridin-3-yl)methyl]-2,4-dimethyl-1,3-benzodioxole-5-carboxamide p-toluene sulfonate]", "values": [{"measurement": "Tumor growth inhibition (TGI)", "setting": "[1]", "value": 20, "unit": "%"}, {"measurement": "Tumor growth inhibition (TGI)", "setting": "[2]", "value": 41, "unit": "%"}, {"measurement": "Tumor growth inhibition (TGI)", "setting": "[3]", "value": 20, "unit": "%"}, {"measurement": "Tumor growth inhibition (TGI)", "setting": "[4]", "value": 80, "unit": "%"}, {"measurement": "Tumor growth inhibition (TGI)", "setting": "[5]", "value": 19, "unit": "%"}, {"measurement": "Tumor growth inhibition (TGI)", "setting": "[6]", "value": 53, "unit": "%"}, {"measurement": "Tumor growth inhibition (TGI)", "setting": "[7]", "value": 31, "unit": "%"}, {"measurement": "Tumor growth inhibition (TGI)", "setting": "[8]", "value": 38, "unit": "%"}, {"measurement": "Tumor growth inhibition (TGI)", "setting": "[9]", "value": 41, "unit": "%"}, {"measurement": "Tumor growth inhibition (TGI)", "setting": "[10]", "value": 9, "unit": "%"}]}
